Test results: patent EP1082963A1, “REMEDIES FOR JOINT DISEASES BOUND TO HYALURONIC ACID” (CHUGAI SEIYAKU KABUSHIKI KAISHA, priority 1998, dated 1999)

Target: gelatinase B (Homo sapiens, UniProt P14780)
Experiment: Gelatinase B inhibiting activity of synovial fluid recovered after intraarticular administration
Assay type: in vivo, rats
Parameters: purchased Roche Diagnostics Co., Ltd
Conditions: Fig. 7
Procedure: The following agents (1 to 3) were administered into right knee joints of 9-10 week old rats (n=4 to 10) and the animals were sacrificed at time intervals; the joint cavities were washed with a total 0.5 ml of a physiological saline to recover a synovial fluid. • Agent 1: 30 nmol of compound 1 • Agent 2: a mixture of 30 nmol of compound 1 and 0.3 mg of HA • Agent 3: 0.3 mg of "conjugate 4" (having compound 1 bound in an amount equivalent to 30 nmol)
By using a kit for measuring gelatinase activity manufactured by Roche Diagnostics, the inhibiting activity of the synovial fluid against gelatinase B was calculated according to the following formula. Gelatinase B Inhibition Activity (%) = [(Enzymatic Activity in the Absence of Synovial Fluid - Enzymatic Activity in the Presence of Added Synovial Fluid)/Enzymatic Activity in the Absence of Synovial Fluid] x 100 [formula]
The results were shown by a mean value ± standard deviation. The gelatinase B inhibiting activity of the synovial fluid from the group administered compound 1 alone and the group administered the mixture of compound 1 and HA decreased to 20% two hours after administration and to less than 5% 17 hours after administration while in the group administered "conjugate 4" about 50% of the gelatinase B inhibiting activity remained 17 hours after administration.

gelatinase B, sequence (P14780 94-707, species assumed): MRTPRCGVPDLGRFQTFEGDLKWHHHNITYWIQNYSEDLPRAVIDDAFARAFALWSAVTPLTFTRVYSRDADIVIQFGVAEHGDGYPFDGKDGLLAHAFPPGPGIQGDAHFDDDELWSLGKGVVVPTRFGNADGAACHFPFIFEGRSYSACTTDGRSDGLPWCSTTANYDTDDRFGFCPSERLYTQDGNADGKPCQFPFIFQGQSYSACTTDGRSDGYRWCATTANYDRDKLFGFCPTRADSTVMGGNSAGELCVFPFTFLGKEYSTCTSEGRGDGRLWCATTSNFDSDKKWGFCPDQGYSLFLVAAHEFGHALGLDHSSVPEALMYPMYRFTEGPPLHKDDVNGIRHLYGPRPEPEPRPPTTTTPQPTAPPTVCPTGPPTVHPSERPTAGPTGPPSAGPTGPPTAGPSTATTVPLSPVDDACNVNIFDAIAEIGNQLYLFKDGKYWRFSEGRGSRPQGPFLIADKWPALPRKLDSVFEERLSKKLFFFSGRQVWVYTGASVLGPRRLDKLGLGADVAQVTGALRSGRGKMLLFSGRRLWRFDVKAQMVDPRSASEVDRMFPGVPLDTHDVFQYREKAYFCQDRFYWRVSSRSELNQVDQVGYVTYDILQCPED

Compound: CNC(=O)[C@H](Cc1c[nH]c2ccccc12)NC(=O)C(CC(=O)NO)CC(C)C (stereo partly drawn) [compound 1, N-[2-isobutyl-3-(N'-hydroxycarbonylamido)propanoyl]-L-tryptophan methylamide]
- gelatinase B inhibiting activity of the synovial fluid (17 hours after administration into rat right knee joint): less than 5%
- gelatinase B inhibiting activity of the synovial fluid (two hours after administration into rat right knee joint): 20%
